The source of these data is patent publication US20020192703A1, “Immunoassay reagents and methods for determination of LSD and LSD metabolites” (priority 1995, published 2002).

Each structure is given as a SMILES string.

Data set [1] can be described thus: Dilution analysis of sample containing LSD metabolite, CEDIA. In kind it is binding. Particulars: for LSD ng/ml CEDIA: LSD equivalents. Here is the method: (§1) In the following experiment, the results of the CEDIA® are compared with those of the DPC assay, and with those obtained using the Abuscreen® radioimmunoassay by Roche. While the amount of metabolite in the sample is not known in absolute terms, the behavior is tested by dilution analysis. Results are given in terms of LSD equivalents.

Data set [2] in a line: Dilution analysis of sample containing LSD metabolite, Abuscreen RIA (Roche). In kind it is binding. The conditions noted are these: LSD equivalents. Here is the method:
as §1

Data set [3] is described as follows: Dilution analysis of sample containing LSD metabolite, DPC RIA. The format is binding. Particulars: LSD equivalents. Here is the method: as §1
The next data set concerns monoclonal antibody 19A7. The format is binding, mice. The conditions noted are these: Concentration Added 0.5 ng/ml. Here is the method: Cross-reactivity was tested by spiking various potential cross-reactants into human urine containing a preservative.
Data set [4] is described as follows: Urine time course after LSD administration, GC/MS. The conditions noted are these: human. In kind it is in vivo. Here is the method: In this example, experiments were performed to better define the time course of excretion of LSD metabolites in urine, and the ability of various immunoassays to detect them.
Individuals were administered LSD, and urine samples were collected over a four-day period. The samples were assayed using the LSD enzyme-complementation immunoassay described in Examples 9 and 10 using monoclonal antibody 19A7. The samples were also measured using the DPC radioimmunoassay (“Coat-A-Count”® LSD assay, by Diagnostic Products Company) according to manufacturer's directions, and by GC/MS).
Results are shown in the following table in terms of LSD equivalents (translating the signal generated using a standard curve obtained with known concentrations of LSD).

For data set [5] the following is noted: in man; calculated; cited from earlier work.
A further data set concerns central nervous system. Particulars: hallucinations, distortions in sensory perception, mood changes; cited from earlier work.
Where [6] appears, read: sample containing the metabolite, essentially free of LSD parent by GC/MS, undiluted.

`CCN(CC)C(=O)[C@@H]1C=C2c3cccc4c3C(O)(C[C@H]2N(C)C1)C(=O)N4` (stereo partly drawn) [LSD Metabolite]: the “recognition of the metabolite by reagents of the invention relative to the Abuscreen assay” value in data set [1] (CEDIA versus Abuscreen RIA) is reported as “about 2.5 fold”. In data set [1] (CEDIA versus DPC RIA), the “recognition of the metabolite by reagents of the invention relative to the DPC assay” value was “about 10 fold”. Also, the “LSD ng/ml CEDIA” value in data set [1] (metabolite sample diluted 1:3) stood at 0.50 ng/mL; in data set [1] (setting [6]) it was 1.32 ng/mL. The “LSD ng/ml Abuscreen RIA” value was determined as 0.23 ng/mL in data set [2] (metabolite sample diluted 1:3) and 0.62 ng/mL in data set [2] (setting [6]). The “LSD ng/ml DPC RIA” value is 0.03 ng/mL in data set [3] (metabolite sample diluted 1:3) and 0.14 ng/mL in data set [3] (setting [6]).

On to `CCN(CC)C(=O)[C@@H]1C=C2c3cccc4[nH]cc(c34)C[C@H]2N(C)C1` [LSD, lysergic acid diethylamide], for which the “% Cross-Reactivity” value with monoclonal antibody 19A7 (100 × observed dose / concentration added) came to 100.00%. The “Concentration Observed” value in the data set on monoclonal antibody 19A7 (in human urine) is reported as 0.5 ng/mL. Also, the concentration at 4 h in data set [4] (urine sample JS U3, 4 hrs after LSD administration) came out at 0.39 ng/mL; in data set [4] (urine sample SW U3, 4 hrs after LSD administration), 0.54 ng/mL. The compound further displayed a concentration at 6 h in data set [4] (urine sample JS U4, 6 hrs after LSD administration) of 0.37 ng/mL. In addition, the concentration at 8 h in data set [4] (urine sample JS U5, 8 hrs after LSD administration) was 0.38 ng/mL; in data set [4] (urine sample SW U4, 8 hrs after LSD administration) it was 0.52 ng/mL; in data set [4] (urine sample SW U5, 8 hrs after LSD administration), 0.71 ng/mL. Moreover, the concentration at 10 h in data set [4] (urine sample JS U6, 10 hrs after LSD administration) worked out at 0.64 ng/mL; in data set [4] (urine sample SW U6, 10 hrs after LSD administration), 0.76 ng/mL. Also, the concentration at 12 h was found to be 0.52 ng/mL in data set [4] (urine sample JS U7, 12 hrs after LSD administration) and 1.77 ng/mL in data set [4] (urine sample SW U7, 12 hrs after LSD administration). In addition, the concentration at 24 h in data set [4] (urine sample JS U8, 24 hrs after LSD administration) turned out to be 0.34 ng/mL; in data set [4] (urine sample SW U8, 24 hrs after LSD administration), 1.42 ng/mL. Moreover, the concentration at 36 h came to 0.03 ng/mL in data set [4] (urine sample JS U9, 36 hrs after LSD administration) and 0.11 ng/mL in data set [4] (urine sample SW U9, 36 hrs after LSD administration). In addition, the concentration at 48 h in data set [4] (urine sample JS U10, 48 hrs after LSD administration) came to 0.01 ng/mL; in data set [4] (urine sample SW U10, 48 hrs after LSD administration), 0.04 ng/mL. In addition, the concentration at 60 h stood at 0 ng/mL in data set [4] (urine sample JS U11, 60 hrs after LSD administration) and 0.02 ng/mL in data set [4] (urine sample SW U11, 60 hrs after LSD administration). Moreover, the concentration at 72 h in data set [4] (urine sample JS U12, 72 hrs after LSD administration) was found to be 0.02 ng/mL; in data set [4] (urine sample SW U12, 72 hrs after LSD administration), 0 ng/mL. The compound further yielded a concentration at 84 h in data set [4] (urine sample JS U13, 84 hrs after LSD administration) of 0 ng/mL. This compound returned a concentration at 98 h in data set [4] (urine sample JS U14, 98 hrs after LSD administration) of 0 ng/mL. For the same compound, in data set [4] (urine sample SW U2, 2 hrs after LSD administration), the concentration at 2 h stood at 0.33 ng/mL. The same compound returned a concentration at 96 h in data set [4] (urine sample SW U14, 96 hrs after LSD administration) of 0.01 ng/mL. In data set [5], the plasma half-life result was “about 3 hours”. Also, the “Oral doses that can cause central nervous system disturbances (as low as)” value in the data set on central nervous system was 25 µg.
